pIC50: −log10 of the molar value.

Among the data in patent US9371292B2, “Quinazoline derivative, preparation method therefor, intermediate, composition and application thereof” (SHANGHAI PHARMACEUTICALS HOLDINGS CO., LTD., priority 2011, dated 2016) are IC50 values, retold here.

Assay [1] has as its system A431 cell. Description: Proliferation inhibition, A431 cells (CellTiter-Glo). In kind it is cell-based. The settings on record: Homo sapiens, A-431, 48 hours. On the procedure:
(§1) This example is to determine the proliferation inhibitory activity against wide type of high expression cell lines A431 of EGFR and mutant cell lines NCI-H1975^L858RT790M, the proliferation inhibitory activity in cell-based level of compound is expressed by IC50. The test method is as follows: both cell lines are purchased from American type culture collection (ATCC). The cells are seeded in a white and opaque 384-well culture plate with a proper concentration (A431: 20000 cells/ml medium; H1975: 15000 cells/ml medium), cultured at 37° C. with 5% CO2 for 24 hrs, a series of medicine with gradient concentration is added, generally 10 concentrations, cultured for another 48 hours under the previous conditions. The assays of the proliferation inhibitory activity against the A431 and H1975 cell of the test compounds are performed by the CellTiter-Glo Luminescent Cell Viability Assay and calculate the proliferation inhibitory activity of compound with different concentrations. CellTiter-Glo Luminescent Cell Viability Assay is purchased from Promega. Fit the data of proliferation inhibitory activity against A431 and H1975 of compounds with different concentrations with 4-parameter equation.
(In general: ATP-based viability assays read luminescence as a measure of living cells.)

Assay [2] has as its target T1, EGFR tyrosine kinase (Homo sapiens, UniProt P00533).
T1 construct: purchased Sigma Aldrich
Briefly: HTRF assay, inhibition of EGFR tyrosine kinase. In kind it is biochemical. The settings on record: HTRF method. On the procedure:
The activity of inhibitory against the kinase of the test compound is expressed by IC50. The assays are performed by Homogeneous time-resolved fluorescence (HTRF) method which is as follows: a series of synthesized analogues with gradient concentration are incubated for 5 minutes in enzymatic solution with specific concentration (for EGFR) at room temperature. Then proper amount of substrate and ATP are added into the reaction mixture to start the enzyme reaction. The assays of the specific concentration of compound is measured by Flexstation III of Molecular device company after the stop buffer and detecting liquid are added to the enzyme reaction system and hatch at room temperature for 1 hour. And the activity of inhibitory against the kinase of the test compound with different concentration will be calculated, then according to the 4-parameter equation, fit the inhibitory activity of the test compound with different concentration to get the IC50. EGFR is purchased from Sigma Aldrich. The HTRF KinEASE-TK is purchased from Cisbio Bioassays. ATP is purchased from Sigma Aldrich.
In general terms: Time-resolved FRET reads energy transfer from a long-lived donor to a nearby acceptor.

In assay [3] the test system is NCI-H1975 L858R T790M cell. Description: Proliferation inhibition, H1975 cells (CellTiter-Glo). Particulars: Homo sapiens, 48 hours. In kind it is cell-based. On the procedure: as §1

T1 sequence (P00533 25-1210): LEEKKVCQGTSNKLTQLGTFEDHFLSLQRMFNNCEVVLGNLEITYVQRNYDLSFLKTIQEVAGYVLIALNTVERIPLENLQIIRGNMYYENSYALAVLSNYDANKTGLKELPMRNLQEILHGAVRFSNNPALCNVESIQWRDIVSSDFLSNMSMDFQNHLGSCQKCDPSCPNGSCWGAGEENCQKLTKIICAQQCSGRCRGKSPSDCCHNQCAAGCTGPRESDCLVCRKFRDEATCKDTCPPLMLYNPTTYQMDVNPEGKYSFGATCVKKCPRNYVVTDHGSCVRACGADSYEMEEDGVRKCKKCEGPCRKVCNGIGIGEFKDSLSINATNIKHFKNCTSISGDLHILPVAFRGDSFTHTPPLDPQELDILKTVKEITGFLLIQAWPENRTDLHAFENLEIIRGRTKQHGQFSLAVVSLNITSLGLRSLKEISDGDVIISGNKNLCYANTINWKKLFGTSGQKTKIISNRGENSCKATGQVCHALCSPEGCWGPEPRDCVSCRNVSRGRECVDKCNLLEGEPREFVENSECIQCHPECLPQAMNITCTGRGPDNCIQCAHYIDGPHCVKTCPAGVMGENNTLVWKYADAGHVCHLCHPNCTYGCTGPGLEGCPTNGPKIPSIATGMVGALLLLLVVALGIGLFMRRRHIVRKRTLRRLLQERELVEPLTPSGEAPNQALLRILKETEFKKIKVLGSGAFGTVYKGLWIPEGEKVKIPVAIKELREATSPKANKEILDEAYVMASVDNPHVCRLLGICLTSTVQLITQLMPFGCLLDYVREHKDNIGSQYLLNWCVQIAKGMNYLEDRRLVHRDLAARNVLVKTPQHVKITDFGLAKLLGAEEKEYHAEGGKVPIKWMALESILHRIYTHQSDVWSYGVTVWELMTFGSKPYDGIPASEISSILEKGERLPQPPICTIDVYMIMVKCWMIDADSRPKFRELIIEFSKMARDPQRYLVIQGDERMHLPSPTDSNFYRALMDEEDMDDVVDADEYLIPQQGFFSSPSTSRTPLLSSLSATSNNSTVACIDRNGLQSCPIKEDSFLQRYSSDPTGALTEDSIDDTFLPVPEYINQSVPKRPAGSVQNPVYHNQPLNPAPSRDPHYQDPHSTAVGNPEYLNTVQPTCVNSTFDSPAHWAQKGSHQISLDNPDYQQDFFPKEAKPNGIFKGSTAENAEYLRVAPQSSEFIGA

Turning to `C=C(Cl)C(=O)Nc1cc2c(Nc3cccc(C(F)(F)F)c3)ncnc2cc1OCC` [Compound 58, N-[7-ethoxy-4-(3-trifluoromethyl-phenylamino)-quinazolin-6-yl]-2-chloro-acrylamide], the pIC50 (usually −log10 of the IC50, conventionally taken in molar units) is 4.57 in assay [1] and 5.08 in assay [3]. Further, the IC50 – broadly, the concentration that inhibits the measured activity by half – in assay [2] turned out to be 1 nM.
Taken in the same sequence, the figures for `C=C(F)C(=O)Nc1cc2c(Nc3ccc(Cl)c(Cl)c3F)ncnc2cc1OCCCN1CCOCC1` [Compound 30, N-[4-(3,4-dichloro-2-fluoro-phenylamino)-7-(3-morpholin-4-yl-propoxy)-quinazolin-6-yl]-2-fluoro-acrylamide] were 6.28, 5.82 and 0.22 nM.
Taken in the same sequence, the figures for `C=C(F)C(=O)Nc1cc2c(Nc3ccc(Cl)c(OC)c3)ncnc2cc1OCCCN1CCOCC1` [Compound 37, N-[4-(4-chloro-3-methoxy-phenylamino)-7-(3-morpholin-4-yl-propoxy)-quinazolin-6-yl]-2-fluoro-acrylamide] were below 4.00, 5.72 and 4.7 nM.
On to `CN(C)C/C=C(\F)C(=O)Nc1cc2c(Nc3ccc(F)c(Cl)c3)ncnc2cc1O[C@H]1CCOC1` [Compound 21-1, (S,Z)-N-(4-((3-chloro-4-fluorophenyl)amino)-7-((tetrahydrofuran-3-yl)oxy)quinazolin-6-yl)-4-(dimethylamino)-2-fluorobut-2-enamide], for which the pIC50 is 4.01 in assay [1] and 5.92 in assay [3]. This molecule showed a 50% inhibitory concentration (IC50) in assay [2] of 0.16 nM.
Taken in the same sequence, the figures for `C=C(F)C(=O)Nc1cc2c(Nc3ccc(F)c(Cl)c3F)ncnc2cc1OCC1CCC1` [Compound 47, N-[4-(3-chloro-2,4-difluoro-phenylamino)-7-cyclobutylmethoxy-quinazolin-6-yl]-2-fluoro-acrylamide] were 4.85, 5.82 and 1.88 nM.
Taken in the same sequence, the figures for `C=C(Cl)C(=O)Nc1cc2c(Nc3ccc(F)c(Cl)c3F)ncnc2cc1OCCCN1CCOCC1` [Compound 34, N-[4-(3-chloro-2,4-difluoro-phenylamino)-7-(3-morpholin-4-yl-propoxy)-quinazolin-6-yl]-2-chloro-acrylamide] were below 4.00, 5.28 and 0.65 nM.
For `COc1cc2ncnc(Nc3ccc(F)c(Cl)c3)c2cc1NC(=O)/C(F)=C/CN1CCOCC1` [Compound 22-1, (Z)-N-(4-((3-chloro-4-fluorophenyl)amino)-7-methoxyquinazolin-6-yl)-2-fluoro-4-morpholinobut-2-enamide], in that order: 5.09, 5.43 and 0.53 nM.
Turning to `C=C(F)C(=O)Nc1cc2c(Nc3ccc(F)c(Cl)c3)ncnc2cc1OCCCN1CCCC1` [Compound 43, N-[4-(3-chloro-4-fluoro-phenylamino)-7-(3-pyrrolidin-l-yl-propoxy)-quinazolin-6-yl]-2-fluoro-acrylamide], the pIC50 is 5.77 in assay [1] and 5.47 in assay [3]. In assay [2], this molecule yielded a 50% inhibitory concentration (IC50) of 1.3 nM.
Taken in the same sequence, the figures for `C=C(F)C(=O)Nc1cc2c(Nc3ccc(F)c(Cl)c3)ncnc2cc1OC1CCN(C)C1` (stereo in doubt) [Compound 64, (S)-N-[4-(3-chloro-4-fluoro-phenylamino)-7-(1-methyl-pyrrolidin-3-yloxy)-quinazolin-6-yl]-2-fluoro-acrylamide] were 5.44, 5.57 and 4.5 nM.
Taken in the same sequence, the figures for `C=C(F)C(=O)Nc1cc2c(Nc3ccc(F)c(F)c3F)ncnc2cc1OCCCN1CCOCC1` [Compound 32, N-[7-(3-morpholin-4-yl-propoxy)-4-(2,3,4-trifluoro-phenylamino)-quinazolin-6-yl]-2-fluoro-acrylamide] were 5.38, 5.25 and 0.72 nM.
Taken in the same sequence, the figures for `C=C(F)C(=O)Nc1cc2c(Nc3ccc(Br)c(Cl)c3F)ncnc2cc1OCCCN1CCOCC1` [Compound 38, N-[4-(4-bromo-3-chloro-2-fluoro-phenylamino)-7-(3-morpholin-4-yl-propoxy)-quinazolin-6-yl]-2-fluoro-acrylamide] were 6.74, 5.96 and 0.35 nM.
In the case of `C=C(F)C(=O)Nc1cc2c(Nc3ccc(Br)cc3F)ncnc2cc1OCCCN1CCOCC1` [Compound 23, N-[4-(4-Bromo-2-fluoro-phenylamino)-7-(3-morpholin-4-yl-propoxy)-quinazolin-6-yl]-2-fluoro-acrylamide], the pIC50 in assay [1] was 5.89; in assay [3], 5.52. Moreover, half-maximal inhibition in assay [2] (IC50) required 1.6 nM.
Taken in the same sequence, the figures for `C#Cc1cccc(Nc2ncnc3cc(OCCCN4CCOCC4)c(NC(=O)C(=C)F)cc23)c1` [Compound 25, N-[4-(3-ethynyl-phenylamino)-7-(3-morpholin-4-yl-propoxy)-quinazolin-6-yl]-2-fluoro-acrylamide] were 5.92, 5.72 and 0.19 nM.
For `C=C(Cl)C(=O)Nc1cc2c(Nc3cccc(Br)c3)ncnc2cc1OCC` [Compound 59, N-[4-(3-bromo-phenylamino)-7-ethoxy-quinazolin-6-yl]-2-chloro-acrylamide], in that order: 5.00, 4.96 and 0.63 nM.
For `C=C(F)C(=O)Nc1cc2c(Nc3ccc(F)c(Cl)c3F)ncnc2cc1O[C@@H]1CCN(C)C1` [Compound 50, (R)-N-[4-(3-chloro-2,4-difluoro-phenylamino)-7-(1-methyl-pyrrolidin-3-yloxy)-quinazolin-6-yl]-2-fluoro-acrylamide], in that order: 4.82, 5.62 and 5.5 nM.
With `C=C(Cl)C(=O)Nc1cc2c(Nc3ccc(F)c(Cl)c3)ncnc2cc1OC` [Compound 57, N-[4-(3-chloro-4-fluoro-phenylamino)-7-methoxy-quinazolin-6-yl]-2-chloro-acrylamide], the results for the pIC50 in assay [1] and in assay [3] were 5.12 and 5.89, respectively. Moreover, the IC50 in assay [2] came to 0.13 nM.
For `C=C(F)C(=O)Nc1cc2c(Nc3ccc(OCc4cccc(F)c4)c(Cl)c3)ncnc2cc1OCCCN1CCOCC1` [Compound 29, N-[4-[3-chloro-4-(3-fluoro-benzyloxy)-phenylamino]-7-(3-morpholin-4-yl-propoxy)-quinazolin-6-yl]-2-fluoro-acrylamide], in that order: 5.23, 5.72 and 3.3 nM.
Taken in the same sequence, the figures for `C=C(F)C(=O)Nc1cc2c(Nc3ccc(F)cc3F)ncnc2cc1OCCCN1CCOCC1` [Compound 31, N-[4-(2,4-difluoro-phenylamino)-7-(3-morpholin-4-yl-propoxy)-quinazolin-6-yl]-2-fluoro-acrylamide] were 5.19, 5.22 and 1.4 nM.
Taken in the same sequence, the figures for `C=C(F)C(=O)Nc1cc2c(Nc3cccc(C(F)(F)F)c3)ncnc2cc1OCC` [Compound 55, N-[7-ethoxy-4-(3-trifluoromethyl-phenylamino)-quinazolin-6-yl]-2-fluoro-acrylamide] were 4.66, 4.89 and 0.97 nM.
`C=C(F)C(=O)Nc1cc2c(Nc3cccc(Br)c3)ncnc2cc1OC` [Compound 52, N-[4-(3-bromo-phenylamino)-7-methoxy-quinazolin-6-yl]-2-fluoro-acrylamide]: the pIC50 in assay [1] is 5.80; in assay [3], 6.33. Besides, the IC50 in assay [2] turned out to be 0.22 nM.
